Data published in article PMC4607724, “Discovery and optimisation studies of antimalarial phenotypic hits” (European Journal of Medicinal Chemistry, 2015).
Read-outs that look alike come from different tables or passages of the source.

Columns and labels:
[1] = system: P. falciparum K1; test: In vitro activity against erythrocytic stages of P. falciparum, 3H-hypoxanthine incorporation assay; type: cell-based; details: Plasmodium falciparum
Method: (§1) VI. Design and Results of the in vitro & in vivo Studies.
A. Drug inhibition of in vitro cultured P. falciparum parasite:[2] All in vitro assays were carried out twice independently in duplicate.In vitro activity against theerythrocytic stages of P. falciparum was determined by using a 3H-hypoxanthine incorporation assay, using the chloroquine and pyrimethamine resistant K1 strain and the standard drugs chloroquine (Sigma C6628) and artemisinin (Arteannuin, Qinghaosu; Sigma 36,159- 3). Compounds were dissolved in DMSO at 10 mg/mL and added to parasite cultures incubated in RPMI 1640 medium without hypoxanthine, supplemented with HEPES (5.94 g/L), NaHCO3 (2.1 g/L), neomycin (100U/mL), AlbumaxR (5 g/L), and washed human red cells A+ at 2.5% haematocrit (0.3% parasitaemia). Serial doubling dilutions of each drug were prepared in 96-well microtiter plates and incubated in a humidified atmosphere at 37 °C; 4% CO 2, 3% O2, 93% N2. After 48 h, 50 µLof 3H-hypoxanthine (= 0.5 µCi) was added to each well of the plate. The plates were incubated for an additional 24 h under the same conditions. The plates were then harvested with a Betaplate cell harvester (Wallac, Zurich, Switzerland), and the red blood cells were transferred onto a glass fiber filter and then washed with distilled water. The dried filters were inserted into a plastic foil with 10 mL of scintillation fluid and were counted in a Betaplate™ liquid scintillation counter (Wallac, Zurich, Switzerland); IC50values were calculated from sigmoidal inhibition curves using Microsoft Excel. […]

[2] = In vitro cytotoxicity assay in L-6 cells (Alamar Blue); details: rat
Method: as §1
A. Drug inhibition of in vitro cultured P. falciparum parasite:[2] […]
B. In vitro cytotoxicity assay: [2] Assays were performed in 96-well microtiter plates, each well containing 100 µl of RPMI 1640 medium supplemented with 1% L-glutamine (200mM) and 10% fetal bovine serum, and 4 x 10^4 L-6 cells (a primary cell line derived from rat skeletal myoblasts).
Serial drug dilutions of seven 3-fold dilution steps covering a range from 90 to 0.123 µg/mL were prepared. After 72 h of incubation the plates were inspected under an inverted microscope to assure growth of the controls and sterile conditions. 10µL of Alamar Blue was then added to each well and the plates incubated for another 2 h. Then the plates were read with a Spectramax Gemini XS microplatefluorometer (Molecular Devices Cooperation, Sunnyvale, CA, USA) using an excitation wave length of 536 nm and an emission wave length of 588 nm. Data were analysed using the microplate reader software Softmax Pro (Molecular Devices Cooperation, Sunnyvale, CA, USA).

[3] = system: P. berghei ANKA GFP; test: In vivo antimalarial efficacy, P. berghei mouse model (4 days treatment); parameters: species or system Plasmodium berghei; details: 10 mg/kg/day × 4, ip, NMRI mice
Method: C. In vivo antimalarial efficacy studies (4 days treatment).[2]
In vivo antimalarial activity was assessed basically as previously described. Groups of three female […]
GFP-transfected P. berghei strain ANKA. .Unless otherwise indicated compounds were formulated in 100% DMSO, diluted 10-fold in distilled water and administered intraperitoneally in a volume of 10 mL kg-1 on four consecutive days (4, 24, 48 and 72 h post infection). Parasitemia was determined on day 4 post infection (24 h after last treatment) by FACS analysis. Activity was calculated as the difference between the mean per cent parasitaemia for the control (n=5 mice) and treated groups expressed as a per cent relative to the control group. The survival time in days was also recorded up to 30 days after infection. A compound was considered curative if the animal survived to day 30 after infection with no detectable parasites. In vivo efficacy studies in mice were conducted at the Swiss Tropical and Public Health Institute (Basel) according to the rules and regulations for the protection of animal rights ("Tierschutzverordnung") of the Swiss "BundesamtfürVeterinärwesen". They were approved by the veterinary office of Canton Basel-

[4] = system: P. falciparum; parameters: method as in PMID 23918316, PMID 23517371; details: cited from earlier work
[5] = K1 strain (chloroquine and pyrimethamine resistant), means of two independent assays, read-out: P. falc. EC50
[6] = L-6 cells (rat skeletal myoblasts)

| Compound | EC50 [1, 5] [µM] | EC50 at 72 h [2, 6] [µM] | melting point | also measured |
| --- | --- | --- | --- | --- |
| Cc1cc(/C=C2\S/C(=N\c3ccccc3)N(C3CCCCC3)C2=O)c(C)[nH]1 [Compound 30] | 3.4 | 23 | – | – |
| CN1C(=O)/C(=C/c2cnn(-c3ccccc3C(F)(F)F)c2)S/C1=N\c1ccccc1 [Compound 38] | 4.6 | 180 | – | – |
| C/N=C1\S/C(=C\c2cnn(-c3ccccc3C(F)(F)F)c2)C(=O)N1C [Compound 43] | 3.6 | 34 | 170 to 172 °C | – |
| C/N=C1\S/C(=C\c2cc(C)n(CCN3CCOCC3)c2C)C(=O)N1C [Compound 40] | 5.6 | 78 | – | – |
| CC1=CC(/C=C2\S/C(=N\c3ccccc3)N(C)C2=O)=C(C)C1c1ccccc1C(F)(F)F (stereo not shown) [Compound 34] | 2.2 | > 200 | – | – |
| Cc1cc(/C=C2\S/C(=N\c3ccccc3)N(C)C2=O)c(C)n1-c1ccccc1 [Compound 33] | 2.6 | > 230 | 203 to 205 °C | – |
| Cc1cc(/C=C2\S/C(=N\c3ccccc3)N(C3CCCCC3)C2=O)c(C)n1-c1ccccc1 [Compound 22] | 0.25 | > 200 | 198 to 199 °C | – |
| O=C1/C(=C/c2ccn(-c3ccccc3C(F)(F)F)c2)S/C(=N\c2ccccc2)N1C1CCCCC1 [Compound 28] | 2.3 | > 180 | 145 to 147 °C | – |
| Cc1cc(/C=C2/SC(=O)NC2=O)c(C)n1-c1ccccc1C(F)(F)F [Compound 46] | 8.4 | 43 | 205 to 210 °C | – |
| Cc1cc(C=C2C(=O)NC(=O)NC2=O)c(C)n1-c1ccccc1C(F)(F)F [Compound 51] | – | – | > 300 °C | EC50 ([1]; K1, read-out: P. falc. EC50): 16 µM; EC50 at 72 h [2]: 120 µM |
| Cc1cc(/C=C2\SC(=O)N(C)C2=O)c(C)n1-c1ccccc1 [Compound 45] | 2.2 | > 290 | 195 to 196 °C | – |
| COc1cc([C@@H]2c3cc4c(cc3[C@H](O)[C@H]3COC(=O)[C@H]23)OCO4)cc(OC)c1OC [podophyllotoxin, reference compound] | – | – | – | EC50 at 72 h [2]: 0.005 µg/mL |
| CN1C(=O)/C(=C/c2ccn(Cc3ccccc3)c2)S/C1=N\c1ccccc1 [Compound 37] | 3.9 | > 240 | 155 to 156 °C | – |
| Cc1cc(/C=C2\NC(=O)NC2=O)c(C)n1-c1ccccc1C(F)(F)F [Compound 49] | 13 | 84 | 265 to 267 °C | – |
| C/N=C1\S/C(=C\c2ccn(-c3ccccc3C(F)(F)F)c2)C(=O)N1C [Compound 41] | 4.7 | 4 | 54 to 55 °C | – |
| Cc1cc(/C=C2\S/C(=N\c3ccccc3)N(C3CCCCC3)C2=O)c(C)n1-c1ccc(Br)cc1 [Compound 21, (2Z,5Z)-3-Cyclohexyl-5-((1-(4-bromophenyl)-2,5-dimethyl-1H-pyrrol-3-yl)methylene)-2-(phenylimino)thiazolidin-4-one] | 0.42 | > 170 | 243 to 244 °C | – |
| Cc1cc(/C=C2/SC(=N)NC2=O)c(C)n1-c1ccccc1C(F)(F)F [Compound 47] | 5.8 | 56 | 285 to 290 °C | – |
| Cc1cc(/C=C2/SC(=S)NC2=O)c(C)n1-c1ccccc1C(F)(F)F [Compound 48] | 21 | 9 | 255 to 258 °C | – |

| Compound | EC50 [1, 5] [µM] | EC50 at 72 h [2, 6] [µM] | melting point | also measured |
| --- | --- | --- | --- | --- |
| Cc1cc(/C=C2\S/C(=N\c3ccccc3)N(C3CCCCC3)C2=O)c(C)n1C [Compound 31] | 1.9 | > 230 | 184 to 185 °C | – |
| Cc1cc(C=C2C(=O)NC(=S)NC2=O)c(C)n1-c1ccccc1C(F)(F)F [Compound 52] | – | – | > 300 °C | EC50 ([1]; K1, read-out: P. falc. EC50): 29 µM; EC50 at 72 h [2]: 16 µM |
| Cc1cc(/C=C2\S/C(=N\c3ccccc3)N(C3CCCCC3)C2=O)c(C)n1-c1cccc(C(F)(F)F)c1 [Compound 24] | 1.9 | > 170 | – | – |
| Cc1cc(/C=C2\NC(=O)NC2=O)c(C)n1-c1ccccc1 [Compound 50] | 11 | > 320 | 267 to 270 °C (dec.) | – |
| CCN(CC)CCCC(C)Nc1ccnc2cc(Cl)ccc12 (stereo not shown) [chloroquine] | – | – | – | % Reduction parasitaemia P. berghei ANKA GFP [3]: 99.97%; Survival ([3]; control 7 days): 20 days; EC50 ([1]; K1, read-out: EC50, control for P. falciparum K1): 0.1 µg/mL |
| Cc1cc(/C=C2\S/C(=N\c3ccccc3)N(C3CCCCC3)C2=O)c(C)n1CCN1CCOCC1 [Compound 27] | 0.61 | 71 | – | – |
| CCOC(=O)C1=C(C)N/C(=C/c2cc(C)n(-c3ccccc3C(F)(F)F)c2C)C1=O [TDR32750] | – | – | – | selectivity compared to L6 mammalian cells ([4]; L6 vs P. falciparum): > 2000 fold; EC50 ([4]; read-out: EC50 against P. falciparum): 0.009 µM |
| Cc1cc(/C=C2\S/C(=N\c3ccccc3)N(C)C2=O)c(C)n1CCN1CCOCC1 [Compound 36] | 0.99 | > 210 | – | – |
| Cc1cc(/C=C2\S/C(=N\c3ccccc3)N(C3CCCCC3)C2=O)c(C)n1-c1ccccc1C(F)(F)F [Compound 25] | 0.78 | > 170 | 125 to 127 °C | – |
| Cc1cc(/C=C2\SC(=O)NC2=O)c(C)n1-c1ccccc1C(F)(F)F [Compound 44] | 1.9 | 64 | 234 to 235 °C | – |
| O=C1/C(=C/c2ccn(Cc3ccccc3)c2)S/C(=N\c2ccccc2)N1C1CCCCC1 [Compound 29] | 1.6 | > 200 | 68 to 70 °C | – |
| Cc1cc(/C=C2\S/C(=N\c3ccccc3)N(C3CCCCC3)C2=O)c(C)n1-c1ccc(N2CCOCC2)cc1 [Compound 26] | 0.09 | > 170 | 155 to 156 °C | – |
| Cc1cc(/C=C2\S/C(=N\c3ccccc3)N(C)C2=O)c(C)n1-c1ccc(N2CCOCC2)cc1 [Compound 35] | 1.5 | 120 | 288 °C | – |
| C/N=C1\S/C(=C\c2cc(C)n(-c3ccc(N4CCOCC4)cc3)c2C)C(=O)N1C [Compound 39] | > 13 | > 220 | 333 to 334 °C | – |
| O=C1/C(=C/c2cnn(-c3ccccc3C(F)(F)F)c2)S/C(=N\c2ccccc2)N1C1CCCCC1 [Compound 32] | 1.9 | > 180 | – | – |
| C/N=C1\S/C(=C\c2ccn(Cc3ccccc3)c2)C(=O)N1C [Compound 42] | 9.5 | > 290 | 128 to 130 °C | – |
| Cc1cc(/C=C2\S/C(=N\c3ccccc3)N(C3CCCCC3)C2=O)c(C)n1-c1ccc(C(F)(F)F)cc1 [Compound 23] | 0.25 | > 170 | 218 to 220 °C | – |
